Assay results: PubChem BioAssay (NCI)
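Results reflect a 48-hour exposure of cells in 96-well plates to compound at five concentrations. Here, GI50 denotes the concentration required for 50% inhibition of growth. At the TGI there is no net growth.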

Experiments:
Assay in all cases: NCI tumour cell line growth inhibition, 48 h
[1] = tested on: 786-0 renal
[2] = tested on: A498 renal
[3] = tested on: ACHN renal
[4] = tested on: BT-549 breast
[5] = tested on: CAKI-1 renal
[6] = tested on: CCRF-CEM leukemia
[7] = tested on: COLO 205 colon
[8] = tested on: DU-145 prostate
[9] = tested on: EKVX NSCLC
[10] = tested on: HCC-2998 colon
[11] = tested on: HCT-116 colon
[12] = tested on: HCT-15 colon
[13] = tested on: HL-60(TB) leukemia
[14] = tested on: HOP-92 NSCLC
[15] = tested on: HS 578T breast
[16] = tested on: HT29 colon
[17] = tested on: K-562 leukemia
[18] = tested on: KM12 colon
[19] = tested on: M14 melanoma
[20] = tested on: MDA-MB-231 breast
[21] = tested on: MDA-MB-435
[22] = tested on: MOLT-4 leukemia
[23] = tested on: NCI-H23 lung
[24] = tested on: NCI-H460 lung
[25] = tested on: NCI-H522 lung
[26] = tested on: OVCAR-4 ovarian
[27] = tested on: OVCAR-5 ovarian
[28] = tested on: OVCAR-8 ovarian
[29] = tested on: PC-3 prostate
[30] = tested on: RPMI-8226 leukemia
[31] = tested on: RXF 393 renal
[32] = tested on: SF-295 CNS
[33] = tested on: SF-539 CNS
[34] = tested on: SK-MEL-2 melanoma
[35] = tested on: SK-MEL-28 melanoma
[36] = tested on: SK-MEL-5 melanoma
[37] = tested on: SK-OV-3 ovarian
[38] = tested on: SNB-19 CNS
[39] = tested on: SNB-75 CNS
[40] = tested on: SR leukemia
[41] = tested on: SW-620 colon
[42] = tested on: T-47D breast
[43] = tested on: TK-10 renal
[44] = tested on: UACC-257 melanoma
[45] = tested on: UACC-62 melanoma
[46] = tested on: UO-31 renal
[47] = tested on: HOP-62 NSCLC
[48] = tested on: IGROV1 ovarian
[49] = tested on: NCI/ADR-RES ovarian
[50] = tested on: SF-268 CNS
[51] = tested on: U251 CNS

## CN(C)C/C=C/C(=O)Nc1ccc(C(=O)N[C@@]2(C)CCC[C@@H](Nc3ncc(Cl)c(-c4c[nH]c5ccccc45)n3)C2)nc1
[1]
  GI50: < 14.6 nM
  TGI: 236 nM
[2]
  GI50: 18.9 nM
  TGI: 62.1 nM
[3]
  GI50: < 10.8 nM
  TGI: 741 nM
[4]
  GI50: 36 nM
  TGI: 155 nM
[5]
  GI50: < 10 nM
  TGI: 1110 nM
[6]
  GI50: < 10 nM
  TGI: 1300 nM
[7]
  GI50: 10 nM
  TGI: 26 nM
[8]
  GI50: 15.3 nM
  TGI: 1090 nM
[9]
  GI50: < 10 nM
  TGI: 564 nM
[10]
  GI50: < 10 nM
  TGI: 164 nM
[11]
  GI50: < 10 nM
  TGI: 124 nM
[12]
  GI50: 28.6 nM
  TGI: 1050 nM
[13]
  GI50: 14.5 nM
  TGI: 66.5 nM
[14]
  GI50: < 10.9 nM
  TGI: 41 nM
[15]
  GI50: 22 nM
  TGI: 87.7 nM
[16]
  GI50: < 10 nM
  TGI: 1090 nM
[17]
  GI50: < 10 nM
  TGI: 5320 nM
[18]
  GI50: 13 nM
  TGI: 194 nM
[19]
  GI50: < 10 nM
  TGI: 28.2 nM
[20]
  GI50: 14.5 nM
  TGI: 1220 nM
[21]
  GI50: 10.8 nM
  TGI: 112 nM
[22]
  GI50: 17.8 nM
  TGI: 1120 nM
[23]
  GI50: < 10 nM
  TGI: 52.3 nM
[24]
  GI50: < 10 nM
  TGI: 386 nM
[25]
  GI50: 17.8 nM
  TGI: 66.4 nM
[26]
  GI50: 14.1 nM
  TGI: 915 nM
[27]
  GI50: 21.3 nM
  TGI: 1240 nM
[28]
  GI50: 15.4 nM
  TGI: 1190 nM
[29]
  GI50: < 10 nM
  TGI: 83.3 nM
[30]
  GI50: < 10 nM
  TGI: 24.4 nM
[31]
  GI50: 14.4 nM
  TGI: 34.4 nM
[32]
  GI50: 12.6 nM
  TGI: 1100 nM
[33]
  GI50: 19.5 nM
  TGI: 92.9 nM
[34]
  GI50: 12.9 nM
  TGI: 51.1 nM
[35]
  GI50: < 10 nM
  TGI: 118 nM
[36]
  GI50: 22.1 nM
  TGI: 779 nM
[37]
  GI50: 101 nM
  TGI: 1230 nM
[38]
  GI50: 16.3 nM
  TGI: 1070 nM
[39]
  GI50: 13.7 nM
  TGI: 42.7 nM
[40]
  GI50: < 10 nM
  TGI: 1090 nM
[41]
  GI50: < 10.6 nM
  TGI: 360 nM
[42]
  GI50: 21.8 nM
  TGI: 565 nM
[43]
  GI50: 15.3 nM
  TGI: 1110 nM
[44]
  GI50: < 10 nM
  TGI: 121 nM
[45]
  GI50: < 10 nM
  TGI: 72.8 nM
[46]
  GI50: 55.7 nM
  TGI: 718 nM

## CCOC(=O)C(NC(=O)Nc1ccc(C)cc1)(OCC)C(F)(F)F (configuration not stated)
[1]
  TGI: > 100000 nM
[2]
  TGI: > 100000 nM
[3]
  TGI: > 100000 nM
[4]
  TGI: > 100000 nM
[5]
  TGI: > 100000 nM
[6]
  TGI: > 100000 nM
[7]
  TGI: > 100000 nM
[10]
  TGI: > 100000 nM
[11]
  TGI: > 100000 nM
[13]
  TGI: > 100000 nM
[47]
  TGI: > 100000 nM
[15]
  TGI: > 100000 nM
[16]
  TGI: > 100000 nM
[48]
  TGI: > 100000 nM
[17]
  TGI: > 100000 nM
[19]
  TGI: > 100000 nM
[21]
  TGI: > 100000 nM
[22]
  TGI: > 100000 nM
[23]
  TGI: > 100000 nM
[49]
  TGI: > 100000 nM
[27]
  TGI: > 100000 nM
[30]
  TGI: > 100000 nM
[31]
  TGI: > 100000 nM
[50]
  TGI: > 100000 nM
[33]
  TGI: > 100000 nM
[34]
  TGI: > 100000 nM
[35]
  TGI: > 100000 nM
[37]
  TGI: > 100000 nM
[38]
  TGI: > 100000 nM
[39]
  TGI: > 100000 nM
[40]
  TGI: > 100000 nM
[42]
  TGI: > 100000 nM
[51]
  TGI: > 100000 nM
[44]
  TGI: > 100000 nM
[46]
  TGI: > 100000 nM
